Assay results from EP0241395A2, “Sweeteners derived from n-phenylguanidinoacetic and n-phenylethananamidinacetic acids, and compositions containing such sweeteners” (UNIVERSITE CLAUDE BERNARD - LYON 1, priority 1986, dated 1987).
Peptide text beside a SMILES is read from it.

Columns and labels:
[1] = cited from earlier work
[2] = system: groupe de huit goûteurs expérimentés; experiment: Sweetening power judged by a panel of eight experienced tasters against a sucrose reference solution; format: in vivo; conditions: weight basis; for Pouvoir édulcorant: Table II, relative to a 2 % sucrose solution; for pouvoir édulcorant, sur une base pondérale: approximate
How it was run: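 Panel of eight experienced tasters compared aqueous solutions of compound at varying concentrations with a sucrose reference at 2 %, sometimes 5 % and 10 %. Sweetening power is the weight ratio of sucrose to compound at equal sweetness intensity, as judged by a majority of tasters, and depends on the reference concentration.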

[3] = Stability in solution at pH 3 and 70 °C, remaining compound determined by HPLC; format: physicochemical; conditions: pH 3, phosphate buffer 1mM; for remaining at 168 h: 1 mm phosphate buffer, after seven days, read-out: composé restant
Procedure: Les agents édulcorants de la présente invention sont généralement stables. La stabilité est déterminée à pH 3 en solution dans un tampon phosphate 1mM à 70 °C. La concentration du composé restant est déterminée par chromatographie liquide haute pression (HPLC). Par exemple, après six jours dans de telles conditions, on retrouve encore la moitié du composé de l'exemple 14 dans lequel X4 est CN, X3, X5, R1, R3 et R4 sont H, A est N, et R2 est (S) CH (CH3) C6H5. On améliore la stabilité lorsque l'on remplace l'atome d'hydrogène de R1 par CH3. Ainsi, après sept jours dans les mêmes conditions , on retrouve encore 88 % du composé de l'exemple 31 dans lequel X3 et X5 sont Cl, X4, R3 et R4 sont H, A est N, R1 est CH3, et R2 est CH2C6H5. De la même manière, toujours après sept jours et dans les mêmes conditions, on retrouve 86 % du composé de l'exemple 33 dans lequel X4 est CN, X3, X5, R3 et R4 sont H, A est N, R1 est CH3, et R2 est CH2C6H5.

[4] = by comparison with a 2 % sucrose solution
[5] = by comparison with a 5 % sucrose solution
[6] = by comparison with a 10 % sucrose solution

## CC1=CC(=O)NS(=O)(=O)O1 [Acésulfame-K]
[1]
  Pouvoir sucrant (saccharose = 1): 200

## C[C@@H](NC(=O)[C@@H](N)CC(=O)O)C(=O)NC1C(C)(C)SC1(C)C [Alitame]
[1]
  Pouvoir sucrant (saccharose = 1): 2000

## COC(=O)[C@H](Cc1ccccc1)NC(=O)[C@@H](N)CC(=O)O [Aspartame] (H-Asp-Phe-OMe)
[1]
  Pouvoir sucrant (saccharose = 1): 200

## C[C@H](NC(=Nc1ccc(C#N)cc1)NCC(=O)O)c1ccccc1 [Exemple 14, acide N-[N-(S)-α-méthylbenzylamino (4-cyanophénylimino)méthyl]-2-aminoéthanoïque]
[2]
  Pouvoir édulcorant: 28000
[2]; [4]
  pouvoir édulcorant, sur une base pondérale: ~28 000 fois celui du saccharose
[2]; [5]
  pouvoir édulcorant, sur une base pondérale: ~20 000 fois celui du saccharose
[2]; [6]
  pouvoir édulcorant, sur une base pondérale: ~10 000 fois celui du saccharose
[3]; after six days
  composé restant: la moitié

## CN(Cc1ccccc1)C(=Nc1cc(Cl)cc(Cl)c1)NCC(=O)O [Exemple 31, acide N-[N-méthyl-N-benzylamino (3,5-dichlorophénylimino)méthyl]-2-aminoéthanoïque]
[2]
  Pouvoir édulcorant: 20000
[2]; [4]
  pouvoir édulcorant, sur une base pondérale: ~20 000 fois celui du saccharose
[3]
  remaining at 168 h: 88%

## CN(Cc1ccccc1)C(=Nc1ccc(C#N)cc1)NCC(=O)O [Exemple 33, acide N-[N-méthyl-N-benzylamino(4-cyanophénylimino)méthyl]-2-aminoéthanoique]
[2]
  Pouvoir édulcorant: 3000
[2]; [4]
  pouvoir édulcorant, sur une base pondérale: ~3 000 fois celui du saccharose
[2]; [5]
  pouvoir édulcorant, sur une base pondérale: ~1800 times sucrose
[2]; [6]
  pouvoir édulcorant, sur une base pondérale: ~1 200 fois celui du saccharose
[3]
  remaining at 168 h: 86%

## CC(NC(=Nc1cc(Cl)cc(Cl)c1)N[C@H](C)C(=O)O)c1ccccc1 (stereo partly drawn) [Exemple 86, acide (R)-N-[N-(S)-α-méthylbenzylamino(3,5-dichlorophénylimino)méthyl]-2-aminopropanoïque]
[2]
  Pouvoir édulcorant: 120
[2]; [4]
  pouvoir édulcorant, sur une base pondérale: ~120 fois celui du saccharose

## C[C@@H](NC(=Nc1ccc(C#N)cc1)NC1CCCCCCC1)C(=O)O [Exemple 87, acide (R)-N-[N-cyclooctylamino(4-cyanophénylimino)méthyl]-2-aminopropanoïque]
[2]
  Pouvoir édulcorant: 900
[2]; [4]
  pouvoir édulcorant, sur une base pondérale: ~900 fois celui du saccharose

## Cc1cc(C)cc(N=C(NCC(=O)O)N(C)Cc2ccccc2)c1 [Exemple 88, acide N-[N-méthyl-N-benzylamino (3,5-diméthylphénylimino)méthyl]-2-aminoéthanoïque]
[2]
  Pouvoir édulcorant: 5000
[2]; [4]
  pouvoir édulcorant, sur une base pondérale: ~5 000 fois celui du saccharose

## COc1ccc(CCC(=O)c2c(O)cc(O[C@@H]3O[C@H](CO)[C@@H](O)[C@H](O)[C@H]3O[C@@H]3O[C@@H](C)[C@H](O)[C@@H](O)[C@H]3O)cc2O)cc1O [Néohespéridine dihydrochalcone]
[1]
  Pouvoir sucrant (saccharose = 1): 1000

## O=C1NS(=O)(=O)c2ccccc21 [Saccharine]
[1]
  Pouvoir sucrant (saccharose = 1): 400

## C=C1C[C@@]23CC[C@H]4[C@@](C)(CCC[C@@]4(C)C(=O)O[C@@H]4O[C@H](CO)[C@@H](O)[C@H](O)[C@H]4O)[C@@H]2CC[C@]1(O[C@@H]1O[C@H](CO)[C@@H](O)[C@H](O)[C@H]1O[C@@H]1O[C@H](CO)[C@@H](O)[C@H](O)[C@H]1O)C3 [Stévioside]
[1]
  Pouvoir sucrant (saccharose = 1): 300

## OC[C@H]1O[C@H](O[C@]2(CCl)O[C@H](CCl)[C@@H](O)[C@@H]2O)[C@H](O)[C@@H](O)[C@H]1Cl [Trichlorogalactosucrose]
[1]
  Pouvoir sucrant (saccharose = 1): 2000

## OC[C@@H](O)[C@H](O)[C@@H](O)CO [Xylitol]
[1]
  Pouvoir sucrant (saccharose = 1): 1

## Cyclamate de sodium
[1]
  Pouvoir sucrant (saccharose = 1): 30

## Glycyrrhizine
[1]
  Pouvoir sucrant (saccharose = 1): 50
